In US11530206B2, “Phenylaminopyrimidine amide autophagy inhibitors and methods of use thereof” (Deciphera Pharmaceuticals, LLC, priority 2019, dated 2022):

How the values were obtained:
[1] = test system: ULK kinase; assay: pATG13 levels of mutant HRas T24 cells after treatment with ULK inhibitors in combination with trametinib (ELISA); assay type: cell-based, human; conditions: T24 urinary bladder cancer cells (mutant HRas), 250 nM trametinib, overnight, pS318-ATG13
Procedure: T24 human urinary bladder cancer cells (25000 cells/well) were added to a 96-well tissue-culture treated plate in 100 μL of pre-warmed DMEM medium supplemented with 10% characterized fetal bovine serum (Invitrogen, Carlsbad, Calif.), 100 units/mL penicillin G, and 100 μg/mL streptomycin and allowed to grow overnight at 37° C., 5% CO2, and 95% humidity. The following day, 100 μL of media containing trametinib or DMSO as a control was added to wells. […] A dose response of a test compound (0.5 μL per well) was added. DMSO (0.5 μL) was added to control wells. The plate was briefly shaken to mix wells and then incubated at 37° C. overnight. The next day, the media was aspirated and cells were washed with Dulbecco's Phosphate Buffered Saline (Gibco). Cells were lysed using MPER lysis buffer (Pierce, Rockford, Ill.) containing Halt Phosphatase and Protease Inhibitors (Pierce, Rockford, Ill.) and Phosphatase inhibitor cocktail 2 (Sigma, St. Louis, Mo.) at 4° C. for 10 minutes with shaking.
(§1) Plate wells were washed with ELISA wash buffer. Cell lysate was added to wells and incubated at room temperature for 2 hours. Plate wells were washed with ELISA wash buffer. […] Plate wells were washed with ELISA wash buffer. […] Plate wells were washed with ELISA wash buffer. […] The reaction was stopped with 2N Sulfuric Acid. The plate was analyzed at on a plate reader measuring absorbance at 450 nm and 540 nm (background). Signal was calculated by first subtracting the background absorbance at 540 nm from the absorbance at 450 nm for each well. Next, the background corrected absorbance at 450 nm from blank wells was subtracted from test wells. Data was compared to control wells to determine % ATG13 phosphorylation. GraphPad Prism was used to calculate IC50 values.

[2] = test system: ULK kinase; assay: pATG13 levels of mutant KRas A549 cells after treatment with ULK inhibitors in combination with trametinib (ELISA); assay type: cell-based, human; conditions: A549 (KRAS mutant) lung cancer cells, 250 nM trametinib, overnight, pS318-ATG13
Summary of the method: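 Lysates with phosphatase/protease inhibitors assayed by pATG13 ELISA, A450 minus A540 background and blank-corrected. % ATG13 phosphorylation versus DMSO controls fitted to IC50.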

[3] = biological target: T1, ULK1 kinase (Homo sapiens, UniProt O75385, E37A/K38A); assay: Biochemical assay for ULK1.3 (coupled pyruvate kinase/lactate dehydrogenase assay, peptide substrate); conditions: 0.1 nM ULK1 (residues 1-283), 1 mM ATP
T1 construct: purchased Beryllium
T1 sequence (O75385 1-283 E37A/K38A): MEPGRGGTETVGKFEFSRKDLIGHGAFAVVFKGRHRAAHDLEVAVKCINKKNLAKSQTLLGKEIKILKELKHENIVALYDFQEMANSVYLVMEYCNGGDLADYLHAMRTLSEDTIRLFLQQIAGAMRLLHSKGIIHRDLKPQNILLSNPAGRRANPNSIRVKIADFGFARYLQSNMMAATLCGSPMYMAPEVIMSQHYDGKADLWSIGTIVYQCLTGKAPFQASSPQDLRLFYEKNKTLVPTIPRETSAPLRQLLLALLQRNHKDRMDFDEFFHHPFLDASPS
Summary of the method: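 ULK1.3 activity was followed by continuous decrease in 340 nm absorbance over 6 h at 30 °C with 1% DMSO final. Rates were taken from the 2–3 h window and converted to percent inhibition against no-compound and known-inhibitor controls. IC50 values came from curve fitting.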

[4] = test system: ULK kinase; assay: pATG13 levels of mutant KRas HCT-116 cells after treatment with ULK inhibitors in combination with trametinib (ELISA); assay type: cell-based, human; conditions: HCT-116 colon cancer cells, 250 nM trametinib, overnight, pS318-ATG13
Procedure: The following day, 10 μL of media containing trametinib or DMSO as a control was added to wells. […] A dose response of a test compound (0.6 μL per well) was added. DMSO (0.6 μL) was added to control wells. The plate was briefly shaken to mix wells and then incubated at 37° C. overnight. The next day, the media was aspirated and cells were washed with Dulbecco's Phosphate Buffered Saline (Gibco). Cells were lysed using MPER lysis buffer (Pierce, Rockford, Ill.) containing Halt Phosphatase and Protease Inhibitors (Pierce, Rockford, Ill.) and Phosphatase inhibitor cocktail 2 (Sigma, St. Louis, Mo.) at 4° C. for 10 minutes with shaking.
as §1

[5] = test system: ULK kinase; assay: pATG13 levels of mutant KRas MiaPaCa-2 cells after treatment with ULK inhibitors in combination with trametinib (ELISA); assay type: cell-based, human; conditions: MiaPaCa-2 pancreatic cancer cells, 250 nM trametinib, overnight, pS318-ATG13
Summary of the method: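 MiaPaCa-2 cells in DMEM with 10% FBS and 2.5% horse serum were pretreated with trametinib or DMSO, then given a test-compound dose response overnight at 37° C. Lysates were assayed for phospho-ATG13 by ELISA (A450 minus A540 background, blank-corrected). % phosphorylation was calculated relative to controls and fitted to IC50.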

Molecule `O=C1CCCCN1CCCNc1nc(Nc2ccc(N3CCNCC3)cc2C2CC2)ncc1C(F)(F)F` [Example 34, 1-(3-((2-((2-cyclopropyl-4-(piperazin-1-yl)phenyl)amino)-5-(trifluoromethyl)pyrimidin-4-yl)amino)propyl)piperidin-2-one] has an IC50 [1] of 0.1 to 0.3 µM, an IC50 [2] of 0.01 to 0.1 µM and an IC50 [3] of 0.001 to 0.025 µM. For the same molecule, the IC50 [4] was 0.01 to 0.1 µM and the IC50 [5] was 0.01 to 0.1 µM.
